This assay concerns the target T1, TMEM175 (Homo sapiens, UniProt Q9BSA9).
T1 sequence (Q9BSA9 1-504): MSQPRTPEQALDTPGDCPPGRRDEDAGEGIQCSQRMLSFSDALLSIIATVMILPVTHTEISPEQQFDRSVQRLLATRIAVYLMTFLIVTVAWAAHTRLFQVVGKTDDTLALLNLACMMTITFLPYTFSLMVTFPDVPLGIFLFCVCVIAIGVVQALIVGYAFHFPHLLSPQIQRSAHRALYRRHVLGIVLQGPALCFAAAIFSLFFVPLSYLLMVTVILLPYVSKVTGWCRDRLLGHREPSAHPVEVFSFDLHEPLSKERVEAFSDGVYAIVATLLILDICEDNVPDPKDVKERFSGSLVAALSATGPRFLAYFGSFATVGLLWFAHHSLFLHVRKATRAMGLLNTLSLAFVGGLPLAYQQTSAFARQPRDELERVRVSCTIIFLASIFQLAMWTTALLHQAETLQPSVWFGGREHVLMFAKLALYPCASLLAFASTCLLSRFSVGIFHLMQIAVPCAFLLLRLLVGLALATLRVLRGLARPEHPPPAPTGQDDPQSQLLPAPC
The assay can be described thus: SSME H+ flux assay (pH jumps) on TMEM175 lysosomes (SURFE2R N1). Type of assay: biochemical. Conditions: 10 mM 4-AP. From the text:
To further investigate the capability of TMEM175 to translocate protons using SSME, we performed H^+ concentration or pH jumps using the SURFE^2R N1. The non-activating solution was set to pH 7.6, defining both the lysosomal and cytosolic pH before the start of the experiment. By exchanging the non-activating for the activating solution, we acidified the cytosolic solution and stimulated H^+ influx through TMEM175 (Figure 5A).
However, the application of pH jumps lead to significant artifact currents of positive magnitude, as observed with the control lysosomes (Figure 5C). These artifacts are a result of protons interacting with the lipid membranes and/or unknown H^+ leak pathways through the lysosomal membrane. To conclude pure TMEM175-related H^+ currents, we subtracted the artifact currents from the currents recorded with the TMEM175 sample. When plotting ΔpH against the artifact-corrected average TMEM175 net H^+ current, we obtain a close-to-linear correlation (Figure 5D).
For comparison with the I/c curve reported for K^+ (Figure 3E), we calculated the difference in H^+ concentration across the lysosomal membrane Δc = cH^out − cH^in, which correlates linearly with the passive H^+ flux J = PH+Δc according to Fick’s law.
We used H^+ concentration or pH jumps to measure H^+ flux through TMEM175. Non-activating solution was set to pH 7.6, while activating solution contained different pH values between pH 7.4 and pH 4.6; (B) Representative current traces induced by pH jumps on lysosomes overexpressing TMEM175. All current traces were recorded with the same sensor, starting from the lowest ΔpH. […] The remaining current mostly reflects the background (artifact) current after full block of TMEM175; (C) Representative current traces from the same experiment on control lysosomes. […] This represents the artifact current also underlying the currents recorded with the TMEM175 sample; (D) SEM and average, artifact-corrected, normalized peak currents from N = 4 sensors, reflecting the H^+ flux through TMEM175, solely driven by the pH gradient. […]

For `Nc1ccncc1` [4-AP, 4-aminopyridine], the “Block of H+ influx current” value (ΔpH 3.0, pH 7.6 to 4.6) is “full block”. The “Effect on H+ efflux currents” value (potency lower than for H+ influx) is “inhibited”.
